Reference: patent US7960562B2, “Propane-1,3-dione derivative or salt thereof” (Astellas Pharma Inc., priority 2005, dated 2011)

What follows are molecules tested against T1, human GnRH receptor (Homo sapiens, UniProt P30968) (assay: Test for GnRH receptor antagonistic effect (inhibition of 125I-D-Trp6-LHRH binding)). Conditions: Table 1; read-out: IC50 (concentration that inhibits 50% of the binding of 125I-D-Trp6-LHRH to a human GnRH receptor).
T1 sequence (P30968 1-328): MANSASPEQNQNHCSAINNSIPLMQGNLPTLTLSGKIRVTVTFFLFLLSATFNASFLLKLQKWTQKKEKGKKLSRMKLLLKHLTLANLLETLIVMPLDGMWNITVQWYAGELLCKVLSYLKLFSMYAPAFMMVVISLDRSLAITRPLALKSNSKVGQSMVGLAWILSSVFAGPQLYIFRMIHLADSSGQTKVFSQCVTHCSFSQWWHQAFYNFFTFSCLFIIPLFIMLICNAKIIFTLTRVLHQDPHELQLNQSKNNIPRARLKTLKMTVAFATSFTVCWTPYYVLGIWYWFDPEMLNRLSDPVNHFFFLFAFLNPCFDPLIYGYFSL
Procedure: The GnRH receptor antagonistic effects of the compounds of the present invention were evaluated by calculating their concentration that inhibit 50% of the binding of ^125I-D-Trp^6-LHRH to a human GnRH receptor (IC50), according to the description in Patent Reference 1, page 56 “1. Test for GNRH Receptor Antagonistic Effect”.
Accordingly, for confirming the usefulness of “group of —SO2—R^3”, the activities of the compounds of the present invention was compared with those of the comparative compounds having —CO—R^3 group.

| Compound | IC50 [pM] |
| --- | --- |
| CC(C)(O)C(=N)NS(=O)(=O)c1cccc(C(=O)C(C(=O)c2cccc(F)c2)=C2Nc3ccccc3N2)c1 [Example 211] | 94 |
| CC(C)(O)C(=N)NS(=O)(=O)c1cc(C(=O)C(C(=O)c2cccc(F)c2)=C2Nc3ccccc3N2)ccc1F [Example 662] | 240 |
| C[C@@H](O)C(=N)NS(=O)(=O)c1cc(C(=O)C(C(=O)c2cccc(F)c2)=C2Nc3ccccc3N2)ccc1F [Example 696, (2R)-N-({5-[2-(1,3-dihydro-2H-benzimidazol-2-ylidene)-3-(3-fluorophenyl)-3-oxopropanoyl]-2-fluorophenyl}sulfonyl)-2-hydroxypropanimidamide] | 180 |
| CC(=N)NS(=O)(=O)c1cccc(C(=O)C(C(=O)c2cccc(F)c2)=C2Nc3ccccc3N2)c1 [Example 245] | 58 |

Same assay, conditions: Table 2; read-out: IC50 (GnRH receptor binding), SO2-R3 compounds versus comparative CO-R3 compounds

| Compound | IC50 [pM] |
| --- | --- |
| CC(=N)NS(=O)(=O)c1cccc(C(=O)C(C(=O)c2cc(F)cc(F)c2)=C2Nc3ccccc3N2)c1 [Example 73] | 53 |
| O=C(C(C(=O)c1cccc(S(=O)(=O)NCCO)c1)=C1Nc2ccccc2N1)c1cc(F)cc(F)c1 [Example 77] | 66 |
| NC(N)=NS(=O)(=O)c1cccc(C(=O)C(C(=O)c2cc(F)cc(F)c2)=C2Nc3ccccc3N2)c1 [Example 89] | 22 |
| O=C(NCCO)c1cccc(C(=O)C(C(=O)c2cc(F)cc(F)c2)=C2Nc3ccccc3N2)c1 [compound 4, reference compound] | 9600 |
| CC(=O)NC(N)=NC(=O)c1cccc(C(=O)C(C(=O)c2cc(F)cc(F)c2)=C2Nc3ccccc3N2)c1 [Comparative Example 3, reference compound] | 16000 |
| CC(=O)NC(N)=NS(=O)(=O)c1cccc(C(=O)C(C(=O)c2cc(F)cc(F)c2)=C2Nc3ccccc3N2)c1 [Example 74] | 560 |
| CC(=N)NC(=O)c1cccc(C(=O)C(C(=O)c2cc(F)cc(F)c2)=C2Nc3ccccc3N2)c1 [compound 1, reference compound] | 7100 |
